Measurements reported in the NIST ThermoML archive (doi:10.1021/je900757k).
Numbers after ± are expanded uncertainties.

Assay: isobaric coefficient of expansion
Details: Liquid, DSC

CCCCCCCCCCCC [dodecane]
isobaric coefficient of expansion
Details	278.15 K	288.15 K	298.15 K	308.15 K	318.15 K	328.15 K	338.15 K	348.15 K
5000 kPa	0.000913 ± 2.2e-05 1/K	0.000925 ± 2.3e-05 1/K	0.00094 ± 2.3e-05 1/K	0.000953 ± 2.3e-05 1/K	0.000964 ± 2.4e-05 1/K	0.000975 ± 2.4e-05 1/K	0.000989 ± 2.4e-05 1/K	0.000999 ± 2.4e-05 1/K
10000 kPa	0.000896 ± 2.2e-05 1/K	0.000902 ± 2.2e-05 1/K	0.000916 ± 2.2e-05 1/K	0.000924 ± 2.3e-05 1/K	0.000932 ± 2.3e-05 1/K	0.000941 ± 2.3e-05 1/K	0.00095 ± 2.3e-05 1/K	0.000958 ± 2.3e-05 1/K
15000 kPa	0.000874 ± 2.1e-05 1/K	0.000881 ± 2.2e-05 1/K	0.000893 ± 2.2e-05 1/K	0.000899 ± 2.2e-05 1/K	0.000908 ± 2.2e-05 1/K	0.000913 ± 2.2e-05 1/K	0.000918 ± 2.2e-05 1/K	0.000921 ± 2.3e-05 1/K
20000 kPa	0.000854 ± 2.1e-05 1/K	0.00086 ± 2.1e-05 1/K	0.000869 ± 2.1e-05 1/K	0.000874 ± 2.1e-05 1/K	0.000876 ± 2.1e-05 1/K	0.000884 ± 2.2e-05 1/K	0.000888 ± 2.2e-05 1/K	0.000891 ± 2.2e-05 1/K
25000 kPa	0.000838 ± 2.1e-05 1/K	0.000842 ± 2.1e-05 1/K	0.000848 ± 2.1e-05 1/K	0.00085 ± 2.1e-05 1/K	0.000851 ± 2.1e-05 1/K	0.000859 ± 2.1e-05 1/K	0.000863 ± 2.1e-05 1/K	0.000863 ± 2.1e-05 1/K
30000 kPa	0.000821 ± 2e-05 1/K	0.000826 ± 2e-05 1/K	0.000827 ± 2e-05 1/K	0.000831 ± 2e-05 1/K	0.000831 ± 2e-05 1/K	0.000835 ± 2e-05 1/K	0.000838 ± 2.1e-05 1/K	0.000837 ± 2.1e-05 1/K
35000 kPa	0.000805 ± 2e-05 1/K	0.000806 ± 2e-05 1/K	0.000807 ± 2e-05 1/K	0.00081 ± 2e-05 1/K	0.000809 ± 2e-05 1/K	0.000813 ± 2e-05 1/K	0.000815 ± 2e-05 1/K	0.000813 ± 2e-05 1/K
40000 kPa	0.000786 ± 1.9e-05 1/K	0.00079 ± 1.9e-05 1/K	0.000788 ± 1.9e-05 1/K	0.000792 ± 1.9e-05 1/K	0.000787 ± 1.9e-05 1/K	0.000791 ± 1.9e-05 1/K	0.000788 ± 1.9e-05 1/K	0.00079 ± 1.9e-05 1/K
45000 kPa	0.000772 ± 1.9e-05 1/K	0.000778 ± 1.9e-05 1/K	0.000775 ± 1.9e-05 1/K	0.000773 ± 1.9e-05 1/K	0.000768 ± 1.9e-05 1/K	0.000774 ± 1.9e-05 1/K	0.000773 ± 1.9e-05 1/K	0.00077 ± 1.9e-05 1/K
50000 kPa	0.00076 ± 1.9e-05 1/K	0.000761 ± 1.9e-05 1/K	0.00076 ± 1.9e-05 1/K	0.000755 ± 1.8e-05 1/K	0.000754 ± 1.8e-05 1/K	0.000757 ± 1.9e-05 1/K	0.000754 ± 1.8e-05 1/K	0.000753 ± 1.8e-05 1/K
55000 kPa	0.000751 ± 1.8e-05 1/K	0.000745 ± 1.8e-05 1/K	0.000744 ± 1.8e-05 1/K	0.000745 ± 1.8e-05 1/K	0.000739 ± 1.8e-05 1/K	0.000742 ± 1.8e-05 1/K	0.00074 ± 1.8e-05 1/K	0.000737 ± 1.8e-05 1/K

CCCCCCCCC [nonane]
isobaric coefficient of expansion
Details	278.15 K	288.15 K	298.15 K	308.15 K	318.15 K	328.15 K	338.15 K	348.15 K
5000 kPa	0.001 ± 2.5e-05 1/K	0.00103 ± 2.5e-05 1/K	0.00105 ± 2.6e-05 1/K	0.00106 ± 2.6e-05 1/K	0.00108 ± 2.7e-05 1/K	0.0011 ± 2.7e-05 1/K	0.00113 ± 2.8e-05 1/K	0.00114 ± 2.8e-05 1/K
10000 kPa	0.000977 ± 2.4e-05 1/K	0.000997 ± 2.4e-05 1/K	0.00101 ± 2.5e-05 1/K	0.00103 ± 2.5e-05 1/K	0.00104 ± 2.6e-05 1/K	0.00106 ± 2.6e-05 1/K	0.00108 ± 2.6e-05 1/K	0.00109 ± 2.7e-05 1/K
15000 kPa	0.000954 ± 2.3e-05 1/K	0.000967 ± 2.4e-05 1/K	0.000984 ± 2.4e-05 1/K	0.000995 ± 2.4e-05 1/K	0.00101 ± 2.5e-05 1/K	0.00102 ± 2.5e-05 1/K	0.00103 ± 2.5e-05 1/K	0.00104 ± 2.5e-05 1/K
20000 kPa	0.000928 ± 2.3e-05 1/K	0.00094 ± 2.3e-05 1/K	0.000955 ± 2.3e-05 1/K	0.000962 ± 2.4e-05 1/K	0.00097 ± 2.4e-05 1/K	0.000984 ± 2.4e-05 1/K	0.000992 ± 2.4e-05 1/K	0.000998 ± 2.4e-05 1/K
25000 kPa	0.000907 ± 2.2e-05 1/K	0.000917 ± 2.2e-05 1/K	0.000927 ± 2.3e-05 1/K	0.000935 ± 2.3e-05 1/K	0.000941 ± 2.3e-05 1/K	0.000949 ± 2.3e-05 1/K	0.00096 ± 2.4e-05 1/K	0.000964 ± 2.4e-05 1/K
30000 kPa	0.000886 ± 2.2e-05 1/K	0.000898 ± 2.2e-05 1/K	0.000903 ± 2.2e-05 1/K	0.000912 ± 2.2e-05 1/K	0.000915 ± 2.2e-05 1/K	0.000921 ± 2.3e-05 1/K	0.000931 ± 2.3e-05 1/K	0.000931 ± 2.3e-05 1/K
35000 kPa	0.000868 ± 2.1e-05 1/K	0.000875 ± 2.1e-05 1/K	0.000878 ± 2.2e-05 1/K	0.000883 ± 2.2e-05 1/K	0.000889 ± 2.2e-05 1/K	0.000892 ± 2.2e-05 1/K	0.000899 ± 2.2e-05 1/K	0.0009 ± 2.2e-05 1/K
40000 kPa	0.000841 ± 2.1e-05 1/K	0.000853 ± 2.1e-05 1/K	0.000856 ± 2.1e-05 1/K	0.00086 ± 2.1e-05 1/K	0.000864 ± 2.1e-05 1/K	0.000865 ± 2.1e-05 1/K	0.000866 ± 2.1e-05 1/K	0.000869 ± 2.1e-05 1/K
45000 kPa	0.000827 ± 2e-05 1/K	0.000836 ± 2e-05 1/K	0.000839 ± 2.1e-05 1/K	0.000838 ± 2.1e-05 1/K	0.000841 ± 2.1e-05 1/K	0.000843 ± 2.1e-05 1/K	0.000846 ± 2.1e-05 1/K	0.000844 ± 2.1e-05 1/K
50000 kPa	0.000811 ± 2e-05 1/K	0.000819 ± 2e-05 1/K	0.000819 ± 2e-05 1/K	0.00082 ± 2e-05 1/K	0.000825 ± 2e-05 1/K	0.000822 ± 2e-05 1/K	0.000825 ± 2e-05 1/K	0.000823 ± 2e-05 1/K
55000 kPa	0.000803 ± 2e-05 1/K	0.000799 ± 2e-05 1/K	0.000803 ± 2e-05 1/K	0.000804 ± 2e-05 1/K	0.000806 ± 2e-05 1/K	0.000803 ± 2e-05 1/K	0.000807 ± 2e-05 1/K	0.000806 ± 2e-05 1/K

CCCCCCCCCCCCCCC [pentadecane]
isobaric coefficient of expansion
Details	298.15 K	308.15 K	318.15 K	328.15 K	338.15 K	348.15 K
5000 kPa	0.000896 ± 2.2e-05 1/K	0.000898 ± 2.2e-05 1/K	0.000901 ± 2.2e-05 1/K	0.000904 ± 2.2e-05 1/K	0.000914 ± 2.2e-05 1/K	0.000925 ± 2.3e-05 1/K
10000 kPa	0.000871 ± 2.1e-05 1/K	0.000873 ± 2.1e-05 1/K	0.000873 ± 2.1e-05 1/K	0.000873 ± 2.1e-05 1/K	0.000883 ± 2.2e-05 1/K	0.000886 ± 2.2e-05 1/K
15000 kPa	0.000848 ± 2.1e-05 1/K	0.000848 ± 2.1e-05 1/K	0.00085 ± 2.1e-05 1/K	0.000846 ± 2.1e-05 1/K	0.000846 ± 2.1e-05 1/K	0.000854 ± 2.1e-05 1/K
20000 kPa	0.000825 ± 2e-05 1/K	0.000824 ± 2e-05 1/K	0.000824 ± 2e-05 1/K	0.000823 ± 2e-05 1/K	0.000821 ± 2e-05 1/K	0.000826 ± 2e-05 1/K
25000 kPa	0.000805 ± 2e-05 1/K	0.000803 ± 2e-05 1/K	0.000803 ± 2e-05 1/K	0.000798 ± 2e-05 1/K	0.000798 ± 2e-05 1/K	0.000801 ± 2e-05 1/K
30000 kPa	0.000793 ± 1.9e-05 1/K	0.000786 ± 1.9e-05 1/K	0.000786 ± 1.9e-05 1/K	0.000781 ± 1.9e-05 1/K	0.000782 ± 1.9e-05 1/K	0.000783 ± 1.9e-05 1/K
35000 kPa	0.000772 ± 1.9e-05 1/K	0.000767 ± 1.9e-05 1/K	0.000764 ± 1.9e-05 1/K	0.000762 ± 1.9e-05 1/K	0.00076 ± 1.9e-05 1/K	0.000758 ± 1.9e-05 1/K
40000 kPa	0.000756 ± 1.9e-05 1/K	0.000751 ± 1.8e-05 1/K	0.000746 ± 1.8e-05 1/K	0.000744 ± 1.8e-05 1/K	0.000738 ± 1.8e-05 1/K	0.000737 ± 1.8e-05 1/K
45000 kPa	0.000742 ± 1.8e-05 1/K	0.000734 ± 1.8e-05 1/K	0.000731 ± 1.8e-05 1/K	0.000726 ± 1.8e-05 1/K	0.000724 ± 1.8e-05 1/K	0.00072 ± 1.8e-05 1/K
50000 kPa	0.00073 ± 1.8e-05 1/K	0.000721 ± 1.8e-05 1/K	0.000718 ± 1.8e-05 1/K	0.00071 ± 1.7e-05 1/K	0.00071 ± 1.7e-05 1/K	0.000705 ± 1.7e-05 1/K
55000 kPa	0.000717 ± 1.8e-05 1/K	0.000709 ± 1.7e-05 1/K	0.000705 ± 1.7e-05 1/K	0.000699 ± 1.7e-05 1/K	0.000697 ± 1.7e-05 1/K	0.000694 ± 1.7e-05 1/K
